# Experimental data from the supplement of paper PMC10307832.
# Experiments:
# Experiment in all cases: relative viability (nuclei count vs DMSO), 5 days (fraction); higher = more cells survive
# NCI-H2023 = test system: NCI-H2023
# Summary of the method: (§1)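 After 5 days of treatment, lung cancer cells in 1536-well plates were fixed and stained in a single step (final 0.05% Triton X-100, 1% formaldehyde, 1 ug/ml Hoechst) and their nuclei counted on 4× images. Treatment had been applied by pin tool the day after seeding as one drug alone or as a fixed anchor-drug dose with five library-drug doses (not always all listed) in √10 steps. Relative viability is the nuclei count of treated wells divided by that of vehicle wells, and values are medians of duplicate plates.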
# HCC-44 = test system: HCC-44
# Summary of the method: as §1
# HCC-366 = test system: HCC-366
# Summary of the method: as §1
# NCI-H441 = test system: NCI-H441
# Summary of the method: as §1
# NCI-H1975 = test system: NCI-H1975
# Summary of the method: as §1
# NCI-H1651 = test system: NCI-H1651
# Summary of the method: as §1
# NCI-H2085 = test system: NCI-H2085
# Summary of the method: as §1
# LU99A = test system: LU99A
# Summary of the method: as §1
# NCI-H1734 = test system: NCI-H1734
# Summary of the method: as §1
# CAL-12T = test system: CAL-12T
# Summary of the method: as §1
# NCI-H2342 = test system: NCI-H2342
# Summary of the method: as §1
# NCI-H358 = test system: NCI-H358
# Summary of the method: as §1
# NCI-H1395 = test system: NCI-H1395
# Summary of the method: as §1
# NCI-H460 = test system: NCI-H460
# Summary of the method: as §1
# NCI-H1355 = test system: NCI-H1355
# Summary of the method: as §1
# BEN = test system: BEN
# Summary of the method: as §1
# NCI-H1650 = test system: NCI-H1650
# Summary of the method: as §1
# NCI-H1755 = test system: NCI-H1755
# Summary of the method: as §1
# EKVX = test system: EKVX
# Summary of the method: as §1
# NCI-H1437 = test system: NCI-H1437
# Summary of the method: as §1
# NCI-H838 = test system: NCI-H838
# Summary of the method: as §1
# LOU-NH91 = test system: LOU-NH91
# Summary of the method: as §1
smiles,measurement,setting,value
O=C(O)c1ccc(-c2c[nH]c3ncc(-c4ccccc4)cc23)cc1C1CCCC1 + O=C(c1cc(Cc2n[nH]c(=O)c3ccccc23)ccc1F)N1CCN(C(=O)C2CC2)CC1 [Olaparib] (partner 8 µM),relative viability,NCI-H2023; first compound 0.04 µM,0.475
same,relative viability,NCI-H2023; first compound 0.1265 µM,0.485
same,relative viability,NCI-H2023; first compound 0.4 µM,0.408
same,relative viability,NCI-H2023; first compound 1.265 µM,0.238
same,relative viability,HCC-44; first compound 0.04 µM,0.998
same,relative viability,HCC-44; first compound 0.1265 µM,0.975
same,relative viability,HCC-44; first compound 0.4 µM,0.975
same,relative viability,HCC-44; first compound 1.265 µM,0.95
same,relative viability,HCC-366; first compound 0.04 µM,0.362
same,relative viability,HCC-366; first compound 0.1265 µM,0.419
same,relative viability,HCC-366; first compound 0.4 µM,0.422
same,relative viability,HCC-366; first compound 1.265 µM,0.376
same,relative viability,NCI-H441; first compound 0.04 µM,0.606
same,relative viability,NCI-H441; first compound 0.1265 µM,0.563
same,relative viability,NCI-H441; first compound 0.4 µM,0.467
same,relative viability,NCI-H441; first compound 1.265 µM,0.265
same,relative viability,NCI-H1975; first compound 0.04 µM,0.724
same,relative viability,NCI-H1975; first compound 0.1265 µM,0.801
same,relative viability,NCI-H1975; first compound 0.4 µM,0.842
same,relative viability,NCI-H1975; first compound 1.265 µM,0.539
same,relative viability,NCI-H1651; first compound 0.04 µM,0.17
same,relative viability,NCI-H1651; first compound 0.1265 µM,0.187
same,relative viability,NCI-H1651; first compound 0.4 µM,0.176
same,relative viability,NCI-H1651; first compound 1.265 µM,0.192
same,relative viability,NCI-H2085; first compound 0.04 µM,0.74
same,relative viability,NCI-H2085; first compound 0.1265 µM,0.793
same,relative viability,NCI-H2085; first compound 0.4 µM,0.746
same,relative viability,NCI-H2085; first compound 1.265 µM,0.474
same,relative viability,LU99A; first compound 0.04 µM,0.255
same,relative viability,LU99A; first compound 0.1265 µM,0.302
same,relative viability,LU99A; first compound 0.4 µM,0.255
same,relative viability,LU99A; first compound 1.265 µM,0.25
same,relative viability,NCI-H1734; first compound 0.04 µM,0.562
same,relative viability,NCI-H1734; first compound 0.1265 µM,0.736
same,relative viability,NCI-H1734; first compound 0.4 µM,0.568
same,relative viability,NCI-H1734; first compound 1.265 µM,0.495
same,relative viability,CAL-12T; first compound 0.04 µM,0.656
same,relative viability,CAL-12T; first compound 0.1265 µM,0.668
same,relative viability,CAL-12T; first compound 0.4 µM,0.566
same,relative viability,CAL-12T; first compound 1.265 µM,0.379
same,relative viability,NCI-H2342; first compound 0.04 µM,0.456
same,relative viability,NCI-H2342; first compound 0.1265 µM,0.445
same,relative viability,NCI-H2342; first compound 0.4 µM,0.501
same,relative viability,NCI-H2342; first compound 1.265 µM,0.446
same,relative viability,NCI-H358; first compound 0.04 µM,0.603
same,relative viability,NCI-H358; first compound 0.1265 µM,0.657
same,relative viability,NCI-H358; first compound 0.4 µM,0.529
same,relative viability,NCI-H358; first compound 1.265 µM,0.275
same,relative viability,NCI-H1395; first compound 0.04 µM,0.473
same,relative viability,NCI-H1395; first compound 0.1265 µM,0.495
same,relative viability,NCI-H1395; first compound 0.4 µM,0.495
same,relative viability,NCI-H1395; first compound 1.265 µM,0.444
same,relative viability,NCI-H460; first compound 0.04 µM,0.523
same,relative viability,NCI-H460; first compound 0.1265 µM,0.463
same,relative viability,NCI-H460; first compound 0.4 µM,0.456
same,relative viability,NCI-H460; first compound 1.265 µM,0.42
same,relative viability,NCI-H1355; first compound 0.04 µM,0.786
same,relative viability,NCI-H1355; first compound 0.1265 µM,0.837
same,relative viability,NCI-H1355; first compound 0.4 µM,0.666
same,relative viability,NCI-H1355; first compound 1.265 µM,0.323
same,relative viability,BEN; first compound 0.04 µM,1.05
same,relative viability,BEN; first compound 0.1265 µM,1.06
same,relative viability,BEN; first compound 0.4 µM,1.09
same,relative viability,BEN; first compound 1.265 µM,0.944
same,relative viability,NCI-H1650; first compound 0.04 µM,0.735
same,relative viability,NCI-H1650; first compound 0.1265 µM,0.815
same,relative viability,NCI-H1650; first compound 0.4 µM,0.65
same,relative viability,NCI-H1650; first compound 1.265 µM,0.606
same,relative viability,NCI-H1755; first compound 0.04 µM,0.879
same,relative viability,NCI-H1755; first compound 0.1265 µM,0.943
same,relative viability,NCI-H1755; first compound 0.4 µM,0.885
same,relative viability,NCI-H1755; first compound 1.265 µM,0.86
same,relative viability,EKVX; first compound 0.04 µM,0.88
same,relative viability,EKVX; first compound 0.1265 µM,0.931
same,relative viability,EKVX; first compound 0.4 µM,0.866
same,relative viability,EKVX; first compound 1.265 µM,0.657
same,relative viability,NCI-H1437; first compound 0.04 µM,0.666
same,relative viability,NCI-H1437; first compound 0.1265 µM,0.633
same,relative viability,NCI-H1437; first compound 0.4 µM,0.556
same,relative viability,NCI-H1437; first compound 1.265 µM,0.279
same,relative viability,NCI-H838; first compound 0.04 µM,0.76
same,relative viability,NCI-H838; first compound 0.1265 µM,0.858
same,relative viability,NCI-H838; first compound 0.4 µM,0.732
same,relative viability,NCI-H838; first compound 1.265 µM,0.468
same,relative viability,LOU-NH91; first compound 0.04 µM,0.893
same,relative viability,LOU-NH91; first compound 0.1265 µM,0.979
same,relative viability,LOU-NH91; first compound 0.4 µM,0.908
same,relative viability,LOU-NH91; first compound 1.265 µM,0.754
